# From US10835416B2, “Ocular insert apparatus and methods” (ForSight Vision5, Inc., priority 2011, dated 2020)
# What was measured:
# eye of a test subject = test: IOP of a test subject wearing successive inserts (FIG. 28); format: in vivo, human
# Procedure: The initial studies on the test subject appear to indicate it may be helpful to provide greater amounts of therapeutic agent than would be provided based on eye drop estimates. The TOP was measured and amounts of therapeutic agent estimated. […] The twin insert was placed in a solution when the patient insert was placed in the eye. The measured rate of release of the twin placed in solution was used to determine the rate of release of the insert placed in the eye. The data of this small study indicate that in at least some instances for some patients, the target threshold amount of therapeutic agent released continuously from an insert placed in the eye may be greater than the amount provided to tissue by drops. It was observed that providing amounts of therapeutic agent greater than the estimated amount provided by drops may provide an improved result. It was observed that after about sixty days the TOP had increased to about 19.5 mm Hg was close to the control eye, and the determined rate of release was about 1.2 ug of prostaglandin comprising bimatoprost per day. The insert was replaced with a second insert providing a rate of release of about 1.6 to 2.5 ug per day based on twin measurements, and the TOP decreased to within a range from about 17 to 18 mm Hg. The second insert was replaced with a third insert providing over 3.8 to 4 ug per day based on twin measurements, and the TOP decreased further to within a range from 14.5 to 16 mm Hg.
# [1] = Wash time in 70% isopropanol bath and rate of release from silicone matrices (FIG. 27); format: physicochemical; conditions: silicone ring with 7% bimatoprost; for elution rate: initial
# Procedure: The experiments were conducted with silicone rings having 7% prostaglandin comprising bimatoprost and medical grade silicone having a rated durometer of Shore A 10 without drug. The elution rate for the unwashed matrix (“0 wash”) was about 35 ug per day and decreased substantially. […] By day 14 the rate of release was substantially the same for each of the unwashed matrix, the matrix washed for 15 minutes, matrix washed for 60 minutes, and the matrix washed for 180 minutes.
# [2] = Rate of release of bimatoprost from insert with silicone matrix (FIGS. 26A, 26B); format: physicochemical
# Procedure: FIGS. 26A and 26B show rates of release of prostaglandin comprising bimatoprost from an insert comprising a silicone matrix. The estimated rate of release for a matrix having 7% prostaglandin comprising bimatoprost loaded on the insert is above 3.5 ug per day for at least about 90 days. The rate of release of prostaglandin comprising bimatoprost was measured from a matrix comprising medical grade silicone having an approximate durometer of 10 A. The configuration of the insert and matrix is described in Table 3 with reverence to mono v.1 which comprises a 1 mm diameter silicone matrix extending along a 75 degree arc length. The surface area was 47.9 mm^2 and the volume 10.4 mm^3. For the 7% loading the amount of drug loaded on the device was about 700 μg. The rate of release of about 0.9 ug/day for 90 days was measured and the rate of release for 120 days was estimated. The therapeutic agent was released for 70 days above 1 ug per day. Based on Table 3, the matrix can be configured to release additional amounts therapeutic agent. For example, the rate of release can be increased by more than 4× by extending the matrix 360 degrees around the suture.
# eye of a subject = test: IOP over time in a patient with a bimatoprost-loaded insert on one eye (FIG. 23); format: in vivo, human; conditions: right eye (OD) with ring insert, silicone matrix (NuSil Med 4810) with about 2% bimatoprost, decreased from about 22 mm Hg, to about 28 days post-op
# Source text: (§1) Test devices comprising a ring shaped retention structure comprising a nylon suture and a support structure 120 having inclined surfaces were placed in an eye of a subject. The support structure comprised a therapeutic agent contained in a silicone matrix. The silicone matrix comprised inclusions of the therapeutic agent as described herein, and the therapeutic agent comprised a prostaglandin. The silicone matrix comprised NuSil Med 4810 and the amount prostaglandin comprised about 2% bimatoprost. The cross-sectional diameter of the support comprising the matrix was about 1 mm and extended about 90 degrees around the ring shaped suture with the suture extending there through. The amount of therapeutic agent within the matrix can be increased with additional studies and embodiments, for example to within a range from about 5-10% prostaglandin such as bimatoprost. […] The ring was inserted in the right eye (OD) and the TOP decreased from about 22 mm Hg to within a range from about 15 to 18 mm Hg to about 28 days post-op. The TOP of the untreated left eye (OS) remained substantially constant and within a range from about 19 mm Hg to about 22 mm Hg. The therapeutic agent comprised a prostaglandin, bimatoprost, and the estimated amount released per day started at approximately 22 ug/day and decreased to approximately 1 ug/day. […]
# [3] = Rate of release measured on twin insert placed in solution (FIG. 28); format: physicochemical; conditions: for rate of release: based on twin measurements
# Procedure: The initial studies on the test subject appear to indicate it may be helpful to provide greater amounts of therapeutic agent than would be provided based on eye drop estimates. The TOP was measured and amounts of therapeutic agent estimated. […] The twin insert was placed in a solution when the patient insert was placed in the eye. The measured rate of release of the twin placed in solution was used to determine the rate of release of the insert placed in the eye.
# [4] = Estimated amount of bimatoprost released per day from the Experiment 6 test device; format: physicochemical; conditions: insert with about 2% bimatoprost in silicone matrix
# Source text: as §1
# [5] = 60 minute wash in 70% isopropanol
# [6] = 180 minute wash in 70% isopropanol
smiles,measurement,setting,value
CCNC(=O)CCC/C=C\C[C@@H]1[C@@H](/C=C/[C@@H](O)CCc2ccccc2)[C@H](O)C[C@@H]1O [bimatoprost],TOP,"eye of a test subject; first insert, after about sixty days, close to the control eye",about 19.5 mm Hg
same,TOP,eye of a test subject; second insert,17 to 18 mm Hg
same,TOP,eye of a test subject; third insert,14.5 to 16 mm Hg
same,initial rate of release,[1]; [5],about 13 ug per day
same,rate of release at 15 days,[1]; [5],about 5 ug per day
same,initial rate of release,[1]; [6],about 13 ug per day
same,rate of release at 15 days,[1]; [6],about 5 ug per day
same,elution rate,[1]; unwashed matrix (0 wash),about 35 ug per day
same,elution rate,[1]; washed for 15 minutes in 70% isopropanol,about 17 ug per day
same,estimated rate of release,"[2]; matrix having 7% bimatoprost loaded on an insert, for at least about 120 days",above 3 ug per day
same,estimated rate of release,"[2]; matrix having 7% bimatoprost loaded on the insert, for at least about 90 days",above 3.5 ug per day
same,rate of release,"[2]; mono v.1: 1 mm diameter 10 A silicone matrix, 75 degree arc, 7% loading (about 700 μg), measured for 90 days",about 0.9 ug/day
same,TOP,eye of a subject,15 to 18 mm Hg
same,determined rate of release,"[3]; first insert, after about sixty days, twin insert in solution",about 1.2 ug per day
same,rate of release,[3]; second insert,1.6 to 2.5 ug per day
same,rate of release,[3]; third insert,3.8 to 4 ug per day
same,"estimated amount released per day, end",[4]; decreased to,about 1 ug/day
same,"estimated amount released per day, start",[4]; started at,about 22 ug/day
